{
  "source": "paper PMC9076587",
  "about": "(RSC Advances, 2019)",
  "type_in_all_cases": "cell-based",
  "key": {"MCF-7 cells": {"test_system": "MCF-7 cells", "assay": "MTT anti-proliferative assay, MCF-7", "conditions": "Homo sapiens, MCF7, read-out: IC50 MCF-7"}, "MDA-MB-231 cells": {"test_system": "MDA-MB-231 cells", "assay": "MTT anti-proliferative assay, MDA-MB-231", "conditions": "for pIC50: Homo sapiens, MDA-MB-231, read-out: IC50 MDA-MB-231; for selectivity between cell lines (in words): MDA-MB-231 versus MCF-7"}, "HEK-293 cells": {"test_system": "HEK-293 cells", "assay": "Cytotoxicity against non-tumorigenic HEK-293 cells", "conditions": "for pIC50: Homo sapiens, HEK293, read-out: IC50 value in HEK293 cells"}},
  "note": "pIC50: −log10 of the molar value. “Also recorded” adds a separate entry of the source.",
  "data": [
    {"compound": "O=C1C(=O)N(Cc2cn(CC/C(=C(\\c3ccccc3)c3ccc(OCCO)cc3)c3ccccc3)nn2)c2ccc(Br)cc21", "note": "[14d]", "values": [
      {"measurement": "pIC50", "setting": "MCF-7 cells", "value": "< 4.00"},
      {"measurement": "pIC50", "setting": "MDA-MB-231 cells", "value": "< 4.00"}
    ]},
    {"compound": "COc1ccc(/C(=C(/CCn2cc(CN3C(=O)C(=O)c4cc(Br)cc(Br)c43)nn2)c2ccccc2)c2ccccc2)cc1", "note": "[12c]", "values": [
      {"measurement": "pIC50", "setting": "MCF-7 cells", "value": 4.88},
      {"measurement": "pIC50", "setting": "MDA-MB-231 cells", "value": 4.83},
      {"measurement": "cytotoxicity against HEK-293 cells (in words)", "setting": "HEK-293 cells", "value": "moderately cytotoxic"},
      {"measurement": "pIC50", "setting": "HEK-293 cells", "value": 4.67}
    ]},
    {"compound": "O=C1N(Cc2cn(CC/C(=C(\\c3ccccc3)c3ccc(OCCO)cc3)c3ccccc3)nn2)c2ccc(Cl)cc2C12OCCO2", "note": "[15b]", "values": [
      {"measurement": "pIC50", "setting": "MCF-7 cells", "value": "< 4.00"},
      {"measurement": "pIC50", "setting": "MDA-MB-231 cells", "value": "< 4.00"}
    ]},
    {"compound": "O=C1C(=O)N(Cc2cn(CC/C(=C(\\c3ccccc3)c3ccc(OCCO)cc3)c3ccccc3)nn2)c2ccc(Cl)cc21", "note": "[14b]", "values": [
      {"measurement": "pIC50", "setting": "MCF-7 cells", "value": 4.48},
      {"measurement": "pIC50", "setting": "MDA-MB-231 cells", "value": 4.74},
      {"measurement": "selectivity between cell lines (in words)", "setting": "MDA-MB-231 cells", "value": "selective for the estrogen-independent MDA-MB-231 cells"}
    ]},
    {"compound": "OCCOc1ccc(/C(=C(/CCCl)c2ccccc2)c2ccccc2)cc1", "note": "[OSP, Ospemifene, reference compound]", "values": [
      {"measurement": "pIC50", "setting": "MCF-7 cells", "value": 4.26},
      {"measurement": "pIC50", "setting": "MDA-MB-231 cells", "value": "< 4.00"}
    ]},
    {"compound": "O=C1C(=O)N(Cc2cn(CC/C(=C(\\c3ccccc3)c3ccc(OCCO)cc3)c3ccccc3)nn2)c2ccc(F)cc21", "note": "[14c]", "values": [
      {"measurement": "pIC50", "setting": "MCF-7 cells", "value": 4.15},
      {"measurement": "pIC50", "setting": "MDA-MB-231 cells", "value": 4.15}
    ]},
    {"compound": "O=C1C(=O)N(Cc2cn(CC/C(=C(\\c3ccccc3)c3ccc(OCCO)cc3)c3ccccc3)nn2)c2ccccc21", "note": "[14a]", "values": [
      {"measurement": "pIC50", "setting": "MCF-7 cells", "value": "< 4.00"},
      {"measurement": "pIC50", "setting": "MDA-MB-231 cells", "value": "< 4.00"}
    ]},
    {"compound": "COc1ccc(/C(=C(/CCn2cc(CN3C(=O)C(=O)c4cc(Br)ccc43)nn2)c2ccccc2)c2ccccc2)cc1", "note": "[12b]", "values": [
      {"measurement": "pIC50", "setting": "MCF-7 cells", "value": "< 4.00"},
      {"measurement": "pIC50", "setting": "MDA-MB-231 cells", "value": 4.12},
      {"measurement": "selectivity between cell lines (in words)", "setting": "MDA-MB-231 cells", "value": "selective against MDA-MB-231 cells"}
    ]},
    {"compound": "COc1ccc(/C(=C(/CCn2cc(CN3C(=O)C4(OCCO4)c4cc(Cl)ccc43)nn2)c2ccccc2)c2ccccc2)cc1", "note": "[13a]", "values": [
      {"measurement": "pIC50", "setting": "MCF-7 cells", "value": 4.68},
      {"measurement": "pIC50", "setting": "MDA-MB-231 cells", "value": 4.69},
      {"measurement": "cytotoxicity against HEK-293 cells (in words)", "setting": "HEK-293 cells", "value": "moderately cytotoxic"},
      {"measurement": "pIC50", "setting": "HEK-293 cells", "value": 4.36}
    ]},
    {"compound": "CC1=CC(=O)c2c(O)cccc2C1=O", "note": "[Plumbagin, reference compound]", "values": [
      {"measurement": "pIC50", "setting": "MCF-7 cells", "value": 5.46},
      {"measurement": "pIC50", "setting": "MDA-MB-231 cells", "value": 5.36}
    ]},
    {"compound": "O=C1N(Cc2cn(CC/C(=C(\\c3ccccc3)c3ccc(OCCO)cc3)c3ccccc3)nn2)c2ccc(Br)cc2C12OCCO2", "note": "[15d]", "values": [
      {"measurement": "pIC50", "setting": "MCF-7 cells", "value": "< 4.00"},
      {"measurement": "pIC50", "setting": "MDA-MB-231 cells", "value": "< 4.00"}
    ]},
    {"compound": "O=C1N(Cc2cn(CC/C(=C(\\c3ccccc3)c3ccc(OCCO)cc3)c3ccccc3)nn2)c2ccc(F)cc2C12OCCO2", "note": "[15c]", "values": [
      {"measurement": "pIC50", "setting": "MCF-7 cells", "value": "< 4.00"},
      {"measurement": "pIC50", "setting": "MDA-MB-231 cells", "value": "< 4.00"}
    ]},
    {"compound": "O=C1C(=O)N(Cc2cn(CC/C(=C(\\c3ccccc3)c3ccc(OCCO)cc3)c3ccccc3)nn2)c2c(Br)cc(Br)cc21", "note": "[14e]", "values": [
      {"measurement": "pIC50", "setting": "MCF-7 cells", "value": 4.50},
      {"measurement": "pIC50", "setting": "MDA-MB-231 cells", "value": 4.72},
      {"measurement": "selectivity between cell lines (in words)", "setting": "MDA-MB-231 cells", "value": "selective for the estrogen-independent MDA-MB-231 cells; also recorded: more selective towards the ER-cells"},
      {"measurement": "cytotoxicity against HEK-293 cells (in words)", "setting": "HEK-293 cells", "value": "non-cytotoxic"},
      {"measurement": "pIC50", "setting": "HEK-293 cells", "value": "< 4.00"}
    ]}
  ]
}
